As usually defined, the GI50 is the concentration giving 50% growth inhibition.

The record followed here is ChEMBL document CHEMBL1201862, “PubChem BioAssay data set” (2004).

Test systems include A549; BT-549; DU-145; HCC 2998; HCT-15; HL-60; HOP-92; M14; MCF7; MDA-N; Malme-3M; NCI-H226; NCI-H23; NCI/ADR-RES; RXF 393; SR; TK-10; UACC-257; UACC-62.
Test in all cases: DTP human tumour cell line panel, 48 h

Each structure is given as a SMILES string.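 1) Cells in 96-well plates. 2) Compound, 48 h, 5 concentrations. 3) Linear interpolation between surrounding doses. 4) Unreached endpoint = highest concentration. Abbreviation: GI50, concentration required for 50% inhibition of growth.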 Activity calls are given as the source filed them. No stated cut-off is given here; in the data, active = GI50 up to about 1.1 µM and inactive = higher.

On to `CCOP(=O)(OCC)C(Nc1ccc(F)cc1)c1ccccc1` (stereo not given), for which the GI50 with A549 was > 100 µM (inactive); in the assay on BT-549, 79.6 µM (inactive); with DU-145 it was > 100 µM (inactive); with HCC 2998, > 100 µM (inactive); in the assay with HCT-15, above 100 µM; in the assay with HL-60, 77.4 µM (inactive). Further, the GI50 with HOP-92 is 94.6 µM (inactive); in the assay on M14, > 100 µM (inactive); in the assay with MCF7, > 100 µM (inactive); with MDA-N, 79.3 µM (inactive); in the assay with Malme-3M it was > 100 µM (inactive); in the assay on NCI-H226, > 100 µM (inactive). Moreover, the GI50 in the assay on NCI-H23 is > 100 µM (inactive); in the assay on NCI/ADR-RES, > 100 µM (inactive); in the assay with RXF 393, > 100 µM (inactive); in the assay on SR, 97.7 µM (inactive); in the assay with TK-10, > 100 µM (inactive); in the assay with UACC-257, > 100 µM (inactive). Moreover, in the assay with UACC-62, the GI50 was > 100 µM (inactive).

Take `Cc1ccnc2c1c(=O)c1ccccc1n2C`: the GI50 in the assay with BT-549 was 27.1 µM (inactive); with DU-145, 52.2 µM (inactive); in the assay on HCC 2998, 39.9 µM (inactive); in the assay on HCT-15, 38 µM; with HL-60 it was 34.2 µM (inactive); in the assay with HOP-92 it was 49.7 µM (inactive). For the same compound, the GI50 with M14 was 39 µM (inactive); with MCF7 it was 32.9 µM (inactive); in the assay on MDA-N it was 34.3 µM (inactive); in the assay on Malme-3M, 29.6 µM (inactive); in the assay on NCI-H226, 44.7 µM (inactive); in the assay with NCI-H23 it was 49.1 µM (inactive). In addition, the GI50 in the assay with NCI/ADR-RES is 40.6 µM (inactive); with RXF 393, 33.3 µM (inactive); in the assay with SR it was 44.9 µM (inactive); in the assay on TK-10 it was 26.3 µM (inactive); in the assay on UACC-257, 37.1 µM (inactive); in the assay on UACC-62, 16.2 µM (inactive).

`C=CC(C)(C)c1cc([C@@H]2COc3cc(O)ccc3C2=O)c(O)c(OC)c1OC`: the GI50 with A549 was 15.8 µM (inactive); in the assay on BT-549 it was 10.2 µM (inactive); in the assay with DU-145, 14.8 µM (inactive); in the assay with HCC 2998, 17.1 µM (inactive); in the assay with HCT-15, 14 µM; with HL-60, 6.75 µM (inactive). The GI50 is 6.1 µM (inactive) in the assay on HOP-92; 15.5 µM (inactive) in the assay on M14; 14.8 µM (inactive) in the assay with MCF7; 7.6 µM (inactive) in the assay with MDA-N; 10.8 µM (inactive) in the assay with Malme-3M; 16.5 µM (inactive) with NCI-H226. The GI50 was 10.4 µM (inactive) in the assay with NCI-H23; 12.6 µM (inactive) in the assay with NCI/ADR-RES; 0.0173 µM (active) with RXF 393; 8.18 µM (inactive) with SR; 27.9 µM (inactive) in the assay on TK-10; 13 µM (inactive) in the assay with UACC-257. In the assay on UACC-62, the GI50 was 13 µM (inactive).

Regarding `COC(=O)C(CCC(=O)CCl)N1C(=O)c2ccccc2C1=O` (stereo not given), the GI50 is 17.7 µM (inactive) in the assay with A549; 8.97 µM (inactive) in the assay on BT-549; 16.9 µM (inactive) in the assay with DU-145; 8.18 µM (inactive) with HCC 2998; 4.25 µM with HCT-15; 2.53 µM (inactive) in the assay on HL-60. Moreover, the GI50 with HOP-92 is 5.78 µM (inactive); in the assay on M14, 5.27 µM (inactive); in the assay with MCF7, 4.57 µM (inactive); in the assay with MDA-N, 7.43 µM (inactive); in the assay with Malme-3M, 4.57 µM (inactive); with NCI-H226, 18.7 µM (inactive). Moreover, the GI50 in the assay on NCI-H23 was 9.89 µM (inactive); with NCI/ADR-RES it was 9.42 µM (inactive); in the assay on RXF 393, 2.39 µM (inactive); in the assay on SR it was 3.39 µM (inactive); in the assay on TK-10, 14.5 µM (inactive); with UACC-257, 7.18 µM (inactive). The GI50 in the assay with UACC-62 is 10.8 µM (inactive).

Take `O=C(O)c1ccccc1/C=C1/Cc2ccc3c(c2C1=O)CCC3`: the GI50 is 44.7 µM (inactive) with A549; 22.9 µM (inactive) with BT-549; 68.9 µM (inactive) with DU-145; 30.5 µM (inactive) with HCC 2998; 33.6 µM in the assay on HCT-15; 20.1 µM (inactive) in the assay with HL-60. In addition, the GI50 is 24.9 µM (inactive) with HOP-92; 35.5 µM (inactive) in the assay on M14; 49.5 µM (inactive) in the assay with MCF7; 29.6 µM (inactive) with MDA-N; 50.8 µM (inactive) in the assay on Malme-3M; 36.2 µM (inactive) in the assay with NCI-H226. Moreover, the GI50 in the assay with NCI-H23 is 35.6 µM (inactive); in the assay with NCI/ADR-RES it was 50.2 µM (inactive); with RXF 393, 38.2 µM (inactive); with SR it was 39.1 µM (inactive); in the assay on TK-10 it was 90.8 µM (inactive); with UACC-257 it was 41.8 µM (inactive). Also, the GI50 in the assay on UACC-62 is 38.9 µM (inactive).

Regarding `N#Cc1c(-c2ccc(Cl)cc2)c2c(n(C3OC(CO)C(O)C(O)C3O)c1=S)CCCC2` (stereo not given), the GI50 in the assay with A549 was > 100 µM (inactive); in the assay with BT-549, 25.5 µM (inactive); with DU-145, > 100 µM (inactive); with HCC 2998, > 100 µM (inactive); in the assay on HCT-15, above 100 µM; with HL-60, 24.7 µM (inactive). Besides, the GI50 in the assay with HOP-92 was 46 µM (inactive); in the assay on M14, > 100 µM (inactive); in the assay with MCF7 it was 55.2 µM (inactive); in the assay with MDA-N, 44.2 µM (inactive); in the assay on Malme-3M, 50.8 µM (inactive); in the assay with NCI-H226, > 100 µM (inactive). Further, the GI50 in the assay with NCI-H23 is > 100 µM (inactive); in the assay with NCI/ADR-RES, > 100 µM (inactive); in the assay with RXF 393, > 10 µM (inactive); with SR, 39.2 µM (inactive); in the assay on TK-10 it was 72.4 µM (inactive); in the assay on UACC-257, > 100 µM (inactive).

For `Brc1ccc2[nH]cc(-c3csc(-c4ccccn4)n3)c2c1`, the GI50 is 14.5 µM (inactive) with A549; > 89.3 µM (inactive) with BT-549; 17.9 µM (inactive) with DU-145; 8.75 µM (inactive) in the assay with HCC 2998; 16.9 µM in the assay on HCT-15; 26.5 µM (inactive) with HL-60. Besides, the GI50 in the assay on HOP-92 was 20.8 µM (inactive); with M14, 22.2 µM (inactive); in the assay with MCF7 it was 10.3 µM (inactive); with MDA-N, 27.6 µM (inactive); in the assay on Malme-3M, 22.1 µM (inactive); in the assay with NCI-H226 it was 11.6 µM (inactive). In addition, the GI50 was 47.4 µM (inactive) in the assay on NCI-H23; > 100 µM (inactive) with NCI/ADR-RES; 6.03 µM (inactive) with RXF 393; 15.4 µM (inactive) in the assay with SR; 24.2 µM (inactive) in the assay with TK-10; 23 µM (inactive) with UACC-257. The GI50 in the assay on UACC-62 was 8.18 µM (inactive).

`COCCOC(C)C(=O)C(O)S(=O)(=O)O` (stereo not given): the GI50 was > 100 µM (inactive) with A549; > 100 µM (inactive) with BT-549; > 100 µM (inactive) in the assay on DU-145; > 100 µM (inactive) in the assay with HCC 2998; above 100 µM with HCT-15; > 100 µM (inactive) in the assay with HL-60. For the same compound, the GI50 with HOP-92, in the assay on M14, in the assay on MCF7, in the assay on MDA-N, in the assay with Malme-3M and with NCI-H226 was > 100 µM (inactive) each time. Besides, the GI50 with NCI-H23, in the assay with NCI/ADR-RES, with RXF 393, in the assay on SR, in the assay on TK-10 and with UACC-257 was > 100 µM (inactive) in each case. For the same compound, the GI50 in the assay on UACC-62 was > 100 µM (inactive).
